Experimental data: ChEMBL document CHEMBL1201862, “PubChem BioAssay data set” (2004)
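Exposure lasted 48 hours, with cells grown in 96-well plates and compounds tested at five concentrations. GI50 is the concentration that inhibits growth by half.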 Calls of active or inactive are those of the source. Cut-off read from the data, not from the text of the source: active = GI50 up to about 1.1 µM and inactive = higher. Where a SMILES comes first, the peptide text is derived from it. The star is where a group is joined. Cbz = O=C(OCc1ccccc1)*

Tests used:
Assay in all cases: NCI-60 cell line screen, 48 h
A549 = test system: A549
SNB-75 = test system: SNB-75
HCT-116 = test system: HCT-116
SW-620 = test system: SW-620
PC-3 = test system: PC-3
OVCAR-3 = test system: OVCAR-3
HT-29 = test system: HT-29
OVCAR-8 = test system: OVCAR-8
SNB-19 = test system: SNB-19
HL-60 = test system: HL-60
SF-295 = test system: SF-295
U-251 = test system: U-251
MOLT-4 = test system: MOLT-4
OVCAR-4 = test system: OVCAR-4
LOX IMVI = test system: LOX IMVI
UACC-257 = test system: UACC-257
EKVX = test system: EKVX
MDA-MB-435 = test system: MDA-MB-435
IGROV-1 = test system: IGROV-1
SK-MEL-2 = test system: SK-MEL-2

Measured: GI50

OC(CC(CC(O)(C(F)(F)Cl)C(F)(F)Cl)=NNc1ccccc1)(C(F)(F)Cl)C(F)(F)Cl
inactive: A549 3.41 µM | SNB-75 2.71 µM | HCT-116 1.98 µM | SW-620 3.27 µM | PC-3 1.35 µM | OVCAR-3 2.77 µM | HT-29 3.06 µM | OVCAR-8 2.9 µM | SNB-19 4.01 µM | HL-60 > 10 µM | SF-295 2.91 µM | U-251 3.3 µM | MOLT-4 > 10 µM | OVCAR-4 3.33 µM | LOX IMVI 2.94 µM | UACC-257 1.88 µM | EKVX 3.27 µM | MDA-MB-435 3.57 µM | IGROV-1 5.62 µM | SK-MEL-2 1.4 µM

O=C(Nc1nnc(-c2ccccc2)o1)C(SC(=S)N1CCOCC1)c1ccccc1 (stereo not given)
inactive: A549 22.6 µM | SNB-75 47.9 µM | HCT-116 22.5 µM | SW-620 42.5 µM | PC-3 27 µM | OVCAR-3 15 µM | HT-29 26.4 µM | OVCAR-8 31.8 µM | SNB-19 40.1 µM | HL-60 12.3 µM | SF-295 21.8 µM | U-251 18.6 µM | MOLT-4 7.98 µM | OVCAR-4 34 µM | LOX IMVI 16.3 µM | UACC-257 35.6 µM | EKVX 15.3 µM | MDA-MB-435 33.2 µM | IGROV-1 35.7 µM | SK-MEL-2 16.8 µM

CC(C)Oc1c(C2(c3ccccc3)SCCCS2)c(=O)c1=O
inactive: A549 > 100 µM | SNB-75 > 100 µM | HCT-116 > 100 µM | SW-620 > 100 µM | PC-3 > 100 µM | OVCAR-3 > 100 µM | HT-29 > 100 µM | OVCAR-8 > 100 µM | SNB-19 > 100 µM | HL-60 > 100 µM | SF-295 > 100 µM | U-251 > 100 µM | MOLT-4 > 100 µM | OVCAR-4 > 100 µM | LOX IMVI > 100 µM | UACC-257 > 100 µM | EKVX > 100 µM | MDA-MB-435 > 100 µM | IGROV-1 > 100 µM | SK-MEL-2 > 100 µM

CCOC(=O)CCC(NC(=O)C(Cc1ccccc1)NC(=O)OCc1ccccc1)C(=O)OCC (stereo not drawn) (Cbz-Phe-Glu(OEt)-OEt; configuration not given here)
inactive: A549 18.8 µM | SNB-75 18.7 µM | HCT-116 18 µM | SW-620 18.2 µM | PC-3 18.2 µM | OVCAR-3 15.3 µM | HT-29 20.2 µM | OVCAR-8 19.5 µM | SNB-19 19.7 µM | HL-60 20.1 µM | SF-295 19.8 µM | U-251 14.9 µM | MOLT-4 30.2 µM | OVCAR-4 17.7 µM | LOX IMVI 14.7 µM | UACC-257 16.9 µM | EKVX 20.4 µM | MDA-MB-435 18.3 µM | IGROV-1 18.1 µM | SK-MEL-2 22.3 µM
